In a melting point compilation (Tetko et al.; mined from patent text by program, amines drawn as free bases though some values may be those of a salt):

Compared with CNC(=O)Cc1cccc(NC(=O)NC)c1, CCNC(=O)CCC(=O)c1ccc(NS(C)(=O)=O)cc1 is higher in melting point: 175 to 177 °C for the first, 210 to 213 °C for the second.

First: CCCCOc1nc(N)c2[nH]c(=O)n(CCCCN(CC(C)(C)O)S(=O)(=O)c3cccc(CC(=O)OC)c3)c2n1
Second: CCCCOc1cc(/C=C(\OC)C(=O)O)ccc1CCCc1ccc(OS(=O)(=O)CCCC)c(OC)c1
The melting point of the first is higher: 192 to 193 °C for the first, 72.5 °C for the second.

Compared with CC(C)(C)OC(=O)N(N)Cc1ccc(-c2ccccc2)cc1, O=C(O)C=CC(=S)c1ccc(-c2ccccc2)cc1 is higher in melting point: 84 to 85 °C for the first, 157 to 159 °C for the second.

First: CCC(O)c1cc2cc(O)c(Cl)c(Cl)c2s1 (configuration not stated)
Second: CNc1cc(C(O)CS(C)(=O)=O)cc(N(C)C(C)=O)c1C (configuration not stated)
The melting point of the first is lower: 145 to 146 °C for the first, 191 to 192 °C for the second.

First: Cc1cc2c(cc1OCCn1ccnc1)CCCC2=O
Second: CN1C(=O)CC[C@]2(C)c3ccc(-c4ncccn4)cc3CC[C@@H]12
The melting point of the first is lower: 118 to 120 °C for the first, 160 to 162 °C for the second.

First: CCSc1nnc(-c2ccc(OC)cc2)c(-c2ccc(OC)cc2)n1
Second: Cc1ccc(-c2[nH]c(-c3c(Cl)cccc3Cl)nc2-c2ccncc2)cc1
The melting point of the first is lower: 118 to 120 °C for the first, 295 to 296 °C for the second.

First: O=C(O)c1[nH]c(-c2ccccc2)cc1-c1ccc(O)cc1
Second: O=C(O)c1c(F)cccc1-c1ccccc1
The melting point of the first is higher: 192 to 193 °C for the first, 122 to 125 °C for the second.

First: N#CC1(C#N)C2CC(C(Cl)C2Cl)C1(Cl)Cl (configuration not stated)
Second: CC1(c2cn(-c3c(Cl)cc(C(F)(F)F)cc3Cl)nc2C#N)CC1(Br)Br (configuration not stated)
The melting point of the first is lower: 126 °C for the first, 133 to 134 °C for the second.

First: COC(=O)CCCCCCCCC(=O)c1ccccc1
Second: CCCCCCOc1cc(C(=O)O)cc(N)c1C(=O)c1ccccc1
The melting point of the first is lower: 37 to 38 °C for the first, 168 °C for the second.

First: CCOC(COC1CC2C3CCC4=CC(=O)CCC4(C)C3(F)C(O)CC2(C)C1(O)C(=O)CO)OCC (configuration not stated)
Second: CC(=O)Oc1ccccc1[C@@H]1SC(C)(C)[C@H](C(=O)O)N1C(C)=O
The melting point of the first is lower: 208 to 210 °C for the first, 214 to 216 °C for the second.

First: CSc1c(C)nc(C(C)C)nc1O
Second: CSc1nc(Cl)cc(P(C)(C)=O)n1
The melting point of the first is lower: 156 °C for the first, 172 to 182 °C for the second.

Compared with CCOC(=O)COc1ccc(CN2C(=O)C3(COc4cc5c(cc43)OCCO5)c3ccccc32)cc1 (configuration not stated), COCCNc1ccc2c(c1)OC(c1ccccc1)C(c1ccc3c(c1)NC(=O)CO3)=C2 (configuration not stated) is higher in melting point: 59 to 61 °C for the first, 185 to 192 °C for the second.

CC(C)(C)c1cc(C(=O)COc2ccc(Cl)cc2Oc2ccc(Cl)cc2Cl)cc(C(C)(C)C)c1O and FC(F)(F)c1cc(Oc2cc(Oc3ccc(Cl)c(C(F)(F)F)c3)ncn2)ccc1Cl cannot be ordered by melting point: 111 to 114 °C for the first, 111 °C for the second.

Compared with Cc1cc(OCc2ccc(-c3ccccc3-c3nnn(C(c4ccccc4)(c4ccccc4)c4ccccc4)n3)cc2)c(-c2cncnc2)c(C)n1, CC(C)(C)OC(=O)Cc1ccc(CC(N=C(c2ccccc2)c2ccccc2)C(=O)OCc2ccccc2)cc1 (configuration not stated) is lower in melting point: 171 to 172 °C for the first, 139 to 141 °C for the second.

Compared with CCOc1cnc2nc(S(=O)(=O)Cl)nn2c1, CNc1nc(Nc2ccc(Cl)c(Cl)c2)ncc1N1C(=O)CNC1=O is higher in melting point: 134 to 137 °C for the first, 301 °C for the second.

Compared with C=CCN1C(=O)c2cccc3c(N(C)CCO)ccc(c23)C1=O, CCN(c1ccc(C(C)=O)cc1)c1nc(=O)c2cccnc2s1 is higher in melting point: 90 to 91 °C for the first, 204 °C for the second.

First: O=C(O)Cc1ccccc1OCCCc1cn(-c2ccc(C(F)(F)F)cn2)nc1C1CCCCC1
Second: CCn1cc(-c2cccc(C(F)(F)F)c2)c(=O)n1-c1ccccc1
The melting point of the first is lower: 127 to 128 °C for the first, 156 to 157 °C for the second.

First: CSc1ccc(Cn2nc(-c3ccc(SC)cc3)c(-c3ccc(F)cc3)cc2=O)cc1
Second: Cc1cc(-c2ccc(S(C)(=O)=O)cc2)n(-c2ccc(F)cc2)c1F
The melting point of the first is higher: 116 °C for the first, 109 to 110 °C for the second.

Compared with Cn1cc(-c2ccc(C(=O)N3Cc4cccn4Cc4ccccc43)cn2)cn1, Cn1cc(C(=O)c2ccncc2)cc1C(=O)c1ccccc1 is lower in melting point: 173 to 175 °C for the first, 127 to 129 °C for the second.

Compared with Sc1nccc(-c2ccccc2)n1, COc1ccc(Cl)cc1-c1nccn1-c1ccccc1 is lower in melting point: 203 to 205 °C for the first, 97 to 102 °C for the second.

First: Cc1nc2c(N)nc3ccccc3c2n1C
Second: COCc1cc2c3ccccc3n(C)c(=O)n2n1
The melting point of the first is higher: 288 to 290 °C for the first, 98 to 100 °C for the second.

Compared with Cc1cccc(COc2cccc(OCc3cccc(Cl)n3)c2)c1C(=O)O, COC(=O)C(Cc1ccc(OCCn2ccc3cccnc32)cc1)C(=O)O (configuration not stated) is higher in melting point: 97 to 98 °C for the first, 120 to 122 °C for the second.

First: O=[N+]([O-])c1ccc2c(c1)C(=NO)CCO2
Second: CCCCN1NC(=O)CC2CCc3cc(N)ccc3C21 (configuration not stated)
The melting point of the first is higher: 173 to 178 °C for the first, 140 to 142 °C for the second.

First: c1ccc(CNn2cccc2)cc1
Second: Cc1cc(-n2ccc(OCCc3ccccc3)cc2=O)sc1C(=O)NCc1ccccc1
The melting point of the first is lower: 39 to 41 °C for the first, 159 to 160 °C for the second.

First: CCc1ccc2c(c1)C=Cc1cc(C)ccc1C2c1cn(-c2ccnc(N3CC(C(=O)Nc4nc(CC(=O)O)cs4)C3)n2)c(=O)[nH]c1=O (configuration not stated)
Second: CN(Cc1sc2c(=O)c(C(=O)NCc3ccc(Cl)cc3)cn(C)c2c1CO)CC(O)c1ccc2ccccc2n1 (configuration not stated)
The melting point of the first is higher: 235 °C for the first, 196 to 198 °C for the second.

Compared with CC(=O)N1c2ccc(N(C)C)cc2Sc2cc(N(C)C)ccc21, CCCCC1(CCCC)CS(=O)(=O)c2ccc(N(C)C)cc2[C@@H](c2ccc(OCc3ccc(C(=O)O)cc3)cc2)[C@H]1O is higher in melting point: 137 °C for the first, 156 to 159 °C for the second.

First: COc1ccc2c(c1)c(OC(C)C)c(C(N)=O)n2C
Second: CSc1ccc(-c2cnn(C(C)(C)C)c(=O)c2OCCC(C)C)cc1
The melting point of the first is lower: 147 to 149 °C for the first, 153 to 155 °C for the second.

First: COc1ccc(-c2cc3ccccc3[nH]2)cc1NC(=S)N[C@H](C)c1ccccc1
Second: CC(C)C(c1cccc(NC(=O)OCc2ccccc2)c1)c1c(O)c2c(oc1=O)CCCCCC2 (configuration not stated)
The melting point of the first is higher: 179 to 181 °C for the first, 96 to 101 °C for the second.

First: CCOC(=O)C(=CNc1cc(C)nc(-c2ccncc2)n1)C(=O)OCC
Second: CCOC(=O)c1ccc(NC(=O)C2Cc3cc(SC)ccc3C(=O)CS2)cc1 (configuration not stated)
The melting point of the first is lower: 169 to 171 °C for the first, 236 to 237 °C for the second.

Compared with CCc1cn(C2CC(N=[N+]=[N-])C(CO)O2)c(=O)[nH]c1=O (configuration not stated), CN1CCN(c2cc3ccccc3c(=O)[nH]2)[C@@H](CO)C1 is higher in melting point: 118 to 120 °C for the first, 169 to 171 °C for the second.

First: COc1nc(-c2ccccc2Cl)c2ccsc2n1
Second: CCn1ncc2c(O)c3c(nc21)C(=O)c1ccccc1CC3
The melting point of the first is lower: 172 to 174 °C for the first, 190 to 192 °C for the second.

First: O=C(OCC12CCCN(CCC1)C2)c1c[nH]c2ccccc12
Second: CN(C)CC1CCCCN1CCCNC(=O)N1c2ccccc2NC(=O)c2ccccc21 (configuration not stated)
The melting point of the first is higher: 207 to 209 °C for the first, 131 to 133 °C for the second.

First: CCCCCCCCCCCCCCCCCCOC(=O)c1ccc(CBr)cc1
Second: C#Cc1cnc2sc(SCCCCCCC)nn2c1=O
The melting point of the first is lower: 53 to 55 °C for the first, 140 to 142 °C for the second.

First: Clc1ccc(-c2coc3ccccc23)cc1
Second: Cc1cc(-c2ccco2)ccc1-c1cc(C(F)(F)F)nn1-c1ccc(S(C)(=O)=O)c(F)c1
The melting point of the first is lower: 56 to 57 °C for the first, 77 to 79 °C for the second.

First: Cc1ncc2c(c1OCC(=O)O)COC2c1ccc(F)cc1 (configuration not stated)
Second: CSc1ncc2cc(Cc3ccccc3F)c(=O)n(C)c2n1
The melting point of the first is higher: 214 °C for the first, 156 to 159 °C for the second.

CC(=O)Nc1nc(CC(=O)O)ns1 and CCn1c(C(F)(F)F)nn(C2=CCC(F)(C(N)=S)C(N)=C2)c1=O (configuration not stated) cannot be ordered by melting point: 161 to 163 °C for the first, 161 °C for the second.
